# Source: patent US20070099867A1, “Pharmaceutical agent containing hyaluronan as an active ingredient” (GLYCOSCIENCE LABORATORIES, INC., priority 2005, published 2007)
# Legend:
# [1] = system: U937 cell (human monocyte line); assay: IL-6 production by LPS-stimulated U937 cells, ELISA; type: cell-based; settings: U937, LPS 100 ng/ml, HA4 100 ng/ml, 24 hours
# Procedure: (§1) An U937 cell was disseminated in a 2 ml aliquot in a 6-well microplate at 5×10^5 cell/ml, supplemented with an LPS at a final concentration of 100 or 1000 ng/ml, and then incubated for 24 hours with 5% CO2 at 37° C. in the presence or absence of HA4 (100 ng/ml). The culture supernatant was centrifuged at 3000 rpm for 5 minutes to obtain a test substance. A 1 ml aliquot of the recovered supernatant was subjected to Human Cytokine Antibody array (Raybio) using an ELISA (ENDOGEN) to detect the production of various cytokines.
# (§2) More specifically, the following procedure was employed to measure the production of the cytokines by the cytokine array and the ELISA.
# To a microplate, 50 μl of a biotinylated antibody solution and 50 μl of the culture supernatant were added, and allowed to stand at room temperature for 2 hours. After washing with a washing buffer three times, 100 μl of a streptoavidin-HRP solution was added, allowed to stand at room temperature for 30 minutes, and washed with the washing buffer three times. A TMB was added, allowed to stand for at room temperature 30 minutes, and then a quencher was added to stop the reaction and the absorbance at 450 nm was measured (reference: 562 nm). The IL-6 concentration (pg/ml) was calculated based on the standard solutions measured in parallel.
# [2] = system: K562 (human erythroleukemia cell); assay: Cell viability by Rhodamine 123 staining after heat treatment; type: cell-based; settings: K562, 20 minutes at 43° C. then 60 minutes at 37° C., HA4 100 ng/ml
# Procedure: In this example, effect of the inventive pharmaceutical agent on cell viability was measured using Rhodamine 123. […] Accordingly, the degree of the staining with Rhodamine 123 serves as an index of the mitochondrial activity, thus the index of the cellular activity (see, non-patent reference 2).
# In this example, a K562 (referred to as human erythroleukemia cell or human erythroblastoid leukemia cell) was used. The K562 was purchased from RIKEN, Japan.
# In this example relating to preparation of test substance, HA4 was prepared at 100 ng/ml. Specifically, HA4 was prepared by the method of Tawada et al. (Tawada A, Masa T, Oonuki Y, Watanabe A, Matsuzaki Y, Asari A. Large-scale preparation, purification and characterization of hyaluronan oligosaccharides from 4-mers to 52-mers. Glycobiology, 2002; 12(7): 421-6) and the concentration was adjusted using a physiological saline.
# First, the K562 was incubated under the condition described below. The culture medium for the K562 was an RPMI-1640 medium. In this example, the K562 was incubated in Groups 1 to 3 shown below. Each group was cultured under the condition described below. […]
# The K562 after washing was inoculated at 1×10^4 cells/ml in a 96-well plate and a photograph was taken using a fluorescent microscope (Nikon). The image was sent to an Adobe Photoshop (Adobe Systems) where the fluorescent intensity of a cell was measured.
# rat spinal injury model = assay: Rat spinal injury model, immunostaining of spinal tissue with anti-Hsp72 and anti-synaptophysin antibody; type: in vivo, Wistar rat; settings: Group 3: continuous intrathecal HA4 6 μg/day, 7 days; compared with Sham-operation (Group 1) and saline (Group 2)
# Procedure: In this example, a rat spinal injury model was treated continuously with a physiological saline (saline group) or a physiological saline containing HA4 (HA4 group) followed by sampling the spinal tissue, which was then immunostained with an anti-Hsp72 antibody and/or an anti-synaptophysin antibody. Also in this example, a rat which had been subjected to a Sham-operation was handled as an intact control (Sham-operation group).
# The rat spinal injury model was prepared by subjecting a Wistar rat (11-week old when receiving, 12-week old when using) to the procedure described below. First, a cervical to lumbar region of a test rat was clipped using an electric clipper under an anesthesia with pentobarbital and then the clipped region was cleaned with a 70% alcohol and ISOGIN. Then, the dorsal skin was excised to expose the 5th to 10th thoracic vertebrae and then the 6th thoracic vertebra was subjected to a semi-laminectomy. Then a dura was incised slightly and then under an anesthesia with xylocaine, the tip (fabricated to be 0.3 mm) of a microforceps was introduced over the width of the spinal posterior funiculus (about 1.5 mm) until the tip of the microforceps was brought into contact with the abdominal side vertebral body, and the microforceps were moved for 10 seconds to effect a debridement of the spinal cord (hereinafter referred to as a primary injury site). […]
# [3] = system: cerebrospinal tissue of multiple sclerosis model (EAE); assay: DNA array analysis of cerebrospinal tissue of the EAE model; type: in vivo, Lewis rats; settings: EAE rats
# [4] = system: U937 cell (human monocyte line); assay: Cytokine production by LPS-stimulated U937 cells, Human Cytokine Antibody array; type: cell-based; settings: U937, LPS 100 ng/ml, HA4 100 ng/ml, 24 hours
# Procedure: as §1, §2
# A 2 ml aliquot of a blocking buffer was added to a membrane blotted with an antibody, which was then shaken for 30 minutes. The blocking buffer was removed, and a 1 ml aliquot of the culture supernatant was added and shaken at room temperature for 2 hours, washed 5 times, and then admixed with a primary antibody solution. After agitating at room temperature for 1.5 hours followed by washing 5 times, a secondary antibody solution was added and agitated overnight at 4° C. After washing 5 times, a chemiluminescence was allowed to develop and photographed by a Polaroid. The photograph was scanned to obtain its digital data which were subjected to an Image J to measure the luminescent intensity. The ratio based on the luminescent intensity of an internal standard placed in 6 positions in the membrane was calculated. In addition, a relative level (%) based on the expression level in a non-treatment group (NT) being 100 was calculated.
# K562 [5] = assay: DNA chip expression analysis of cytokine-associated and chemokine-associated genes (Example 4); type: cell-based, human; settings: K562, 42° C. 20 minutes then 37° C. 30 minutes, HA4 10 ng/ml
# Procedure: In this example, the cytokine-associated gene and chemokine-associated gene expression inhibition of a pharmaceutical agent according to the invention was assessed using a DNA chip capable of monitoring a gene expression promotion/inhibition.
# Experimental method: First, the K562 was incubated in Groups 1 and 2 in the RPMI medium described above. The both groups were incubated at 42° C. for 20 minutes followed by 37° C. for 30 minutes. The medium of Group 2 was supplemented with HA4 (10 ng/ml).
# After the incubation, the medium was removed by centrifugation at 1000 rpm. The obtained cells were stored in a deep freezer at −60° C. From the cells thus stored, RNA was extracted according to a standard method. The extracted RNA was subjected to the DNA chip to analyze the gene expression. The DNA chip gene expression analysis was subtracted to DNA CHIP Research Inc. Specifically, the trade name: AceGene Human Oligo Chip 30K 1 Chip Version manufactured by DNA CHIP Research Inc. was employed.
# K562 [6] = assay: DNA chip gene expression analysis of cell viability genes (Example 3); type: cell-based, human; settings: K562, 42° C. 20 minutes then 37° C. 30 minutes, HA4 10 ng/ml
# Procedure: In this example, the cell viability enhancement of a pharmaceutical agent according to the invention was assessed using a DNA chip capable of monitoring a gene expression promotion/inhibition.
# First, the K562 was incubated in Groups 1 and 2 in the […] described above. The both groups were incubated at 42° C. for 20 minutes followed by 37° C. for 30 minutes. The medium of Group 2 was supplemented with HA4 (10 ng/ml).
# After the incubation, the medium was removed by centrifugation at 1000 rpm. The obtained cells were stored in a deep freezer at −60° C. From the cells thus stored, RNA was extracted according to a standard method. The extracted RNA was subjected to the DNA chip to analyze gene expressions. The DNA chip gene expression analysis was subtracted to DNA CHIP Research Inc. Specifically, the trade name: AceGene Human Oligo Chip 30K 1 Chip Version manufactured by DNA CHIP Research Inc. was employed.
# [7] = system: experimental autoimmune encephalomyelitis (EAE) multiple sclerosis model animals; assay: Experimental autoimmune encephalomyelitis (EAE) multiple sclerosis model, EAE neural symptom evaluation; type: in vivo, Lewis rats; settings: for EAE clinical score at the EAE climax: Day 13 after antigen inoculation, saline 2.2±0.41; for diseased period: saline 6.5±0.55 days
# [8] = intrathecal continuous 6 μg/day from antigen inoculation, Day 14, pooled cerebrospinal tissue
# [9] = intraspinal single administration after onset of disease, 60 μg
structure (smiles),measurement,setting,value
"CC(=O)N[C@H]1[C@H](O[C@H]2[C@H](O)[C@@H](O)[C@H](O[C@H]3[C@H](O)[C@@H](CO)OC(O)[C@@H]3NC(C)=O)O[C@@H]2C(=O)O)O[C@H](CO)[C@@H](O)[C@@H]1O[C@@H]1O[C@H](C(=O)O)[C@@H](O)[C@H](O)[C@H]1O (some centres unmarked) [HA4, tetrasaccharide hyaluronan]",production of IL-6 (ELISA),[1],reduction
same,"Rhodamine 123 staining performance (fluorescent intensity, mitochondrial activity)",[2],inhibited such a reduction
same,Hsp72 immunostaining at primary and secondary injury sites,rat spinal injury model,a further intense staining
same,synaptophysin immunostaining at primary and secondary injury sites,rat spinal injury model,an expression close to that observed in Group 1
same,IL-6 mRNA expression in cerebrospinal tissue,"[3]; HA4 administered intrathecally after antigen inoculation, DNA array",increased
same,"Expression level ratio (HA/physiological saline), Decoy TRAIL receptor without death domain",[3]; [8],2.0
same,"Expression level ratio (HA/physiological saline), Fibroblast growth factor receptor substrate 2",[3]; [8],2.3
same,"Expression level ratio (HA/physiological saline), Transthyretin",[3]; [8],0.38
same,production of IL-1α (cytokine array),[4],reduction
same,production of IL-1β (cytokine array),[4],reduction
same,production of IL-6 (cytokine array),[4],reduction
same,production of TGF-β (cytokine array),[4],reduction
same,production of TNF-α (cytokine array),[4],reduction
same,production of TNF-β (cytokine array),[4],reduction
same,"HA4(+)/HA4(−) ratio, CCL28 gene expression",K562 [5],0.32
same,"HA4(+)/HA4(−) ratio, IFN-γ gene expression",K562 [5],0.11
same,"HA4(+)/HA4(−) ratio, IFN-ω1 gene expression",K562 [5],0.5
same,"HA4(+)/HA4(−) ratio, IL-1β gene expression",K562 [5],0.36
same,"HA4(+)/HA4(−) ratio, IL-5 gene expression",K562 [5],0.28
same,"HA4(+)/HA4(−) ratio, IL-17b gene expression",K562 [5],0.31
same,"HA4(+)/HA4(−) ratio, IL-18RAP gene expression",K562 [5],0.32
same,"HA4(+)/HA4(−) ratio, Mig(CXCL9) gene expression",K562 [5],0.11
same,"HAA+/− ratio, Caspase 2 gene expression",K562 [6]; apoptosis-related,0.27
same,"HAA+/− ratio, Granzyme H gene expression",K562 [6]; apoptosis-related,0.38
same,"HAA+/− ratio, STK17b (DARK2) gene expression",K562 [6]; apoptosis-related,0.09
same,"HAA+/− ratio, pawr (Par-4) gene expression",K562 [6]; apoptosis-related,0.45
same,"HAA+/− ratio, dnaj (hsp40) homolog gene expression",K562 [6]; heat shock protein-related,2.62
same,"HAA+/− ratio, DNAJ2 gene expression",K562 [6]; transcription control-related,0.34
same,"HAA+/− ratio, TAF9L gene expression",K562 [6]; transcription control-related,0.43
same,EAE clinical score at the EAE climax,"[7]; intraspinal continuous administration after onset of disease, 6 μg/day, 11 days (therapeutic)",1.5±1.0
same,EAE clinical score at the EAE climax,"[7]; intraspinal continuous administration immediately after inoculation, 6 μg/day, 22 days (prophylactic), mean ± SD",0.2±0.41
same,EAE clinical score at the EAE climax,[7]; [9],1.8±0.5
same,diseased period,"[7]; intraspinal continuous administration after onset of disease, 6 μg/day, 11 days",4.3 ± 1.5 days
same,cases developing the disease,"[7]; intraspinal continuous administration immediately after inoculation, 6 μg/day, 22 days",⅙
same,diseased period,[7]; [9],5.0 ± 1.5 days
